Assay results: patent publication US10821079B2, “PKC activators and combinations thereof” (Cognitive Research Enterprises, Inc., priority 2011, dated 2020)
Where two headings read alike, the source gives them in different places.

Columns and labels:
[1] = test system: PKC; details: cited from earlier work
[2] = cited from earlier work
[3] = target: PKC-δ (Homo sapiens, UniProt Q05655); assay: Activation of purified PKC isozymes, radiometric: PKC-δ; type: biochemical
Protocol: (§1) To measure PKC activity, 10 μg of protein from either cytosol or membrane was incubated for 15 min at 37° C. in the presence of 10 μM histones, 4.89 mM CaCl2, 1.2 μg/μl phosphatidyl-L-serine, 0.18 μg/μl 1,2-dioctanoyl-sn-glycerol, 10 mM MgCl2, 20 mM HEPES (pH 7.4), 0.8 mM EDTA, 4 mM EGTA, 4% glycerol, 8 μg/ml aprotinin, 8 μg/ml leupeptin, 2 mM benzamidine, and 0.5 μCi of [γ-^32P]ATP. [^32P]Phosphoprotein formation was measured by adsorption onto phosphocellulose as described previously. See Nelson et al. (2009) J Biol Chem 284, 34514-34521. For measurements of activation by RA, PKC activity was measured in the absence of diacylglycerol (DAG) and phosphatidylserine, as described by Nelson et al. (2009) J Biol Chem 284, 34514-34521. PKC-δ and PKC-ε were measured in the absence of added EGTA and CaCl^2, as described by Kanno et al. (2006) J Lipid Res 47, 1146-1156. The enzyme was provided as a purified isozyme for in vitro experiments.
(§2) To measure PKC, 10 μl of cell homogenate or purified PKC isoform was incubated for 15 min at 37° C. in the presence of 10 μM histones, 4.89 mM CaCl2, 1.2 μg/μl phosphatidyl-L-serine, 0.18 μg/μl 1,2-dioctanoyl-sn-glycerol, 10 mM MgCl2, 20 mM HEPES (pH 7.4), 0.8 mM EDTA, 4 mM EGTA, 4% glycerol, 8 μg/ml aprotinin, 8 μg/ml leupeptin, and 2 mM benzamidine. [γ32P]ATP (0.5 μCi) was added and 32P-phosphoprotein formation was measured by adsorption onto phosphocellulose as described previously. See Nelson et al., J. Neurochemistry, 1995, 65: 2350-2357.
(§3) PKC activity of each compound was measured in the absence of diacylglycerol and phosphatidylserine and PKC-δ and PKC-ε were measured in the absence of added EGTA and CaCl2, as described by Kanno et al., J. Lipid Res., 2006, 47: 1146-1156. Low concentrations of Ca^2+ were needed because high Ca^2+ can interact with the PKC phosphatidylserine binding site and prevents activation. […] To determine their PKC isoform specificity, the compounds were pre-incubated with purified isoforms of PKC for five minutes and the PKC activity was measured radiometrically.

[4] = target: T1, PKCα (Homo sapiens, UniProt P17252); assay: Activation of purified PKC isozymes, radiometric: PKC-α; type: biochemical
Protocol: as §1, §2, §3
(§4) The activation and PKC isozyme specificity of DCPLA-ethyl ester was measured following the procedures in Example 1(B) and (C), except that 9 ng of the purified isozyme was used and it was pre-incubated for 5 minutes at room temperature (FIG. 3). PKC-ε activation by DCPLA-tert-butyl ester and DCPLA-retinyl ester was measured in the same manner as DCPLA-ethyl ester (FIG. 3).

[5] = target: T2, PKC-ε (Homo sapiens, UniProt Q02156); assay: Activation of purified PKC isozymes, radiometric: PKC-ε; type: biochemical
T2 sequence (Q02156 1-737): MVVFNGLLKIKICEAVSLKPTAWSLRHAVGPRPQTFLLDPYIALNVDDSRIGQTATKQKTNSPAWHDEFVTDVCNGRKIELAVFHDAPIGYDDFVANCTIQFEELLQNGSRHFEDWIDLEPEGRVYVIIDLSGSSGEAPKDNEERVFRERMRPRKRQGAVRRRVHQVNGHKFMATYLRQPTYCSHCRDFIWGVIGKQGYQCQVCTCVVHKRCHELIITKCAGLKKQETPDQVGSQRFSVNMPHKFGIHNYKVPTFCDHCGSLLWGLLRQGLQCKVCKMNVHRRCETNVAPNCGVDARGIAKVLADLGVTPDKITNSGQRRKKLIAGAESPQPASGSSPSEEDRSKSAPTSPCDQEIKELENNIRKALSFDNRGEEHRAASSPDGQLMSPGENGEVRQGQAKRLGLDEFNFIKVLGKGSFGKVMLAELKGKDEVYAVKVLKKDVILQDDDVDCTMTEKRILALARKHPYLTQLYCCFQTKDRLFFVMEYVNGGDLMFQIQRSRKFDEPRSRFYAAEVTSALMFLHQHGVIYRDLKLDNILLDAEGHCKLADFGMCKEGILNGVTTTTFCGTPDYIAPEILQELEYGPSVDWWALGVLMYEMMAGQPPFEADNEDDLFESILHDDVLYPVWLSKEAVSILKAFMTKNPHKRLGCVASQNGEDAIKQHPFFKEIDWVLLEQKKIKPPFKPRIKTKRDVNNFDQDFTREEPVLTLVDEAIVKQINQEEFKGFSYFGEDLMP
Protocol: as §2, §3, §4
The EC50 values, PKC specificity, and activation for a select number of DCPLA esters was determined (see Table 1). EC50 values were determined by measuring the lowest concentration that activates by 50% of maximum activation. […] The specificity and activation of PKC by the various esters of DCPLA were calculated from the measurements of activation of PKC isozymes.

[6] = test system: PKC; details: cited from earlier work; remark: listed apart in the source
[7] = target: T3, PKC; details: cited from earlier work
T3 construct: Ki

[8] = target: T1, PKCα; details: cited from earlier work
[9] = test system: NCI 60 cell line screen; details: cited from earlier work
[10] = target: protein kinase C; details: (−)-enantiomer; read-out: EC50 (potency); cited from earlier work
[11] = test system: PKC-ε; assay: PKC-ε level in primary neurons (immunofluorescence, Western Blot); type: cell-based, rat; details: 5 μM inhibitor
Protocol: Cells were harvested in homogenizing buffer containing 10 mM Tris-Cl (pH 7.4), 1 mM PMSF (phenylmethylsulfonyl fluoride), 1 mM EGTA, 1 mM EDTA, 50 mM NaF, and 20 μM leupeptin and were lysed by sonication. The homogenate was centrifuged at 100,000×g for 15 min at 4° C. to obtain the cytosolic fraction (supernatant) and membrane (pellet). The pellet was resuspended in the homogenizing buffer by sonication. Protein concentration was measured using the Coomassie Plus (Bradford) Protein Assay kit (Pierce, USA). Following quantification, 20 μg of protein from each sample was subjected to SDS-PAGE analysis in 4-20% gradient Tris-Glycine gel (Invitrogen, USA). The separated protein was then transferred to nitrocellulose membrane. The membrane was blocked with BSA at room temperature for 15 min and was incubated with primary antibody over night at 4° C. After the incubation, it was washed three times with TBS-T (Tris Buffered saline-Tween 20) and further incubated with alkaline phosphatase conjugated secondary antibody (Jackson Immunoresearch Laboratories, USA) at 1:10,000 dilution for 45 min. The membrane was finally washed three times with TBS-T and developed using the 1-step NBT-BCIP substrate (Pierce, USA). Western Blot was imaged in the ImageQuant RT-ECL (GE Life Sciences, Piscataway, N.J.) and densitometric quantification was performed using the IMAL software (Blanchette Rockefeller Neurosciences Institute, Morgantown, W. Va.). For translocation assays, PKC activation was represented as the percentage of total protein in the membrane (membrane/cytosol+membrane).
Cells were grown in two chambered slides (Nunc, USA) at low density. For immunofluorescence staining, the cells were washed with PBS (pH 7.4) and fixed with 4% paraformaldehyde for 4 min. Following fixation, the cells were blocked and permeabilized with 5% serum and 0.3% Triton X 100 in 1×PBS for 30 min. […] Six individual fields at 63× oil lens magnification were analyzed for the mean fluorescence intensity (MFI) in each channel. […]

[12] = test system: primary rat hippocampal neurons; assay: Neuroprotection against ASPD induced toxicity, MTT, primary neurons; type: cell-based; details: added with DCPLA-ME, 50 nM ASPD
Protocol: Viability of cells was measured by MTT assay. MTT (3-(4,5-Dimethylthiazol-2-yl)-2,5-diphenyltetrazolium bromide) is a tetrazolium salt that is cleaved to formazan by the succinate dehydrogenase, which is only active in viable cells. After solubilization of the formazan, the amount of dye can be quantified with a microplate reader at 570 nm along with a reference of 630 nm. For MTT assay, 5×104 primary rat hippocampal neurons from 18-day-old embryonic Sprague-Dawley rat brains were plated on each well of 24-well plates coated with poly-D-lysine. After treatment, the cells were washed with 1×PBS and were incubated with 200 μl of 1 mg/ml MTT solution (Sigma, USA) at 37° C. for 2 hr. Then the MTT-solution was removed and the cells were lysed with 200 μl isopropanol containing 0.04 M HCl and 160 mM NaOH for 10 min. Finally, the reading was done at 570 nm and 630 nm. All the samples were done in triplicates and the data was represented as the percentage of control.
All studies used 50 nM ASPDs. The viability of the cells were measured by the MTT assay.

Sequence of PKC-δ (Q05655 whole entry): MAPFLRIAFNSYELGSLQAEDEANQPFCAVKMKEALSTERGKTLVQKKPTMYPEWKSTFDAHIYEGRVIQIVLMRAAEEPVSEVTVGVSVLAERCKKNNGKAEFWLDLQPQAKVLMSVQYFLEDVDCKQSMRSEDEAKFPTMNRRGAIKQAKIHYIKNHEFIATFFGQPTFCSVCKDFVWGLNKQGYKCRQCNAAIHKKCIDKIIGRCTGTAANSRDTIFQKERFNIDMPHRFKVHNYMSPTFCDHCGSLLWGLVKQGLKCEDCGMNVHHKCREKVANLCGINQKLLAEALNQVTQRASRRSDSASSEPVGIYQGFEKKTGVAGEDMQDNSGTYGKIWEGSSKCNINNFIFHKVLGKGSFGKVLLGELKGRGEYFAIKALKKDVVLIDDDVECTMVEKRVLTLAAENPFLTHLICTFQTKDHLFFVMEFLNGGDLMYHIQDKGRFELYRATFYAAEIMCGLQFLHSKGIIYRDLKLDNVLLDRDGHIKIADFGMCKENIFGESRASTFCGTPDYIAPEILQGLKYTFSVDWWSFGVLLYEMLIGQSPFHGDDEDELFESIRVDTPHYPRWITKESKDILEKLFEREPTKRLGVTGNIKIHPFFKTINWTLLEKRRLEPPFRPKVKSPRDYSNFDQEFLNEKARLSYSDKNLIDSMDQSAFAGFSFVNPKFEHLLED

Compound: CCCCCCCC(=O)O[C@H]1/C(=C/C(=O)OC)C[C@H]2C[C@H](CO)OC(=O)C[C@H](O)C[C@@H]3CCC[C@H](C[C@@H]4CCO[C@H](/C=C/C(C)(C)[C@]1(O)O2)O4)O3 [Analog 1]
- affinity for PKC (in words) [1]: highest affinity for PKC
- Ki ([1]; read-out: PKC Affin): 0.25 nM

Compound: CCC/C=C/C=C/C(=O)O[C@H]1/C(=C/C(=O)OC)C[C@H]2C[C@H]([C@@H](C)O)OC(=O)C[C@H](O)C[C@@H]3C[C@H](OC(C)=O)C(C)(C)[C@](O)(C[C@@H]4C/C(=C/C(=O)OC)C[C@H](/C=C/C(C)(C)[C@]1(O)O2)O4)O3 [Bryostatin-1]
- time detectable in the blood ([2]; after a single injection): 14 days
- share of initial dose in the blood ([2]; at 100 hrs, intravenous injection): 1%
- t1/2 in the blood stream ([2]; blood): 1 h

Compound: CCCCCC1CC1CC1CC1CCCCCCCC(=O)OC(C)C (stereo not drawn) [DCPLA-isopropyl ester]
- effect on PKC-δ (in words) [3]: only slightly activated
- PKC-α activation [4]: up to 40 % of control
- PKC-ε activation at peak [5]: up to 40 % of control
- concentration of maximal activation [5]: 10 nM
- Specificity ε/α ([5]; Activation of PKC-ε ÷ activation or inhibition of PKCα at 3 × EC50): 1.4

Compound: CCC1CC1CC1CC1CC1CC1CC1CC1CC1CC1CC1CC1CCC(=O)O (stereo not drawn) [DHA-CP6]
- effective concentration [6]: 10 nM

Compound: CC1=C[C@]23C(=O)[C@@H](C=C(COC(=O)c4ccccc4)[C@@H](O)[C@]2(O)[C@H]1OC(=O)c1ccccc1)[C@H]1[C@@H](C[C@H]3C)C1(C)C [Ingenol 3,20-dibenzoate]
- Ki [7]: 240 nM

Compound: CC1=CC[C@H](C)C(C)(C)[C@@H]1/C=C/C(C)=C/CC[C@@]1(CO)[C@H](CCCO)/C(=C(/C)C=O)CC[C@]1(C)O [Iripallidal]
- Ki [8]: 75.6 nM
- GI50 (concentration required to inhibit growth by 50%) [9]: micromolar to nanomolar range

Compound: CCCCCCCC(=O)OC1C(=CC(=O)OC)CC2CC(CO)OC(=O)CC(O)CCOC(CCCc3ccc(Br)cc3)CC3CCOC(C=CC(C)(C)C1(O)O2)O3 (stereo not drawn) [bryolog 5]
- Ki ([1]; A-ring bryologs, read-out: affinity for PKC): 1.9 nM

Compound: CCCCCCCCc1ccc2c3c(c[nH]c13)C[C@@H](CO)NC(=O)[C@H](C(C)C)N2C [octylindolactam V, Octylindolactam V]
- EC50 [10]: 29 nM

Compound: EAVSLKPT
- effect of inhibitor on PKC-ε protection by DCPLA-ME [11]: completely blocked
- effect of inhibitor peptide on neuroprotection by DCPLA-ME [12]: blocked DCPLA-ME's protective effect
